Assay [1] relates to Homomeric GluK1 or GluK2 receptors. In words: Whole-cell patch-clamp current response, homomeric GluK1 or GluK2 receptors. The format is cell-based, rat. The following applies: read-out: EC50 range; summary in discussion of own homomer values. On the technique in general: Patch clamp records ionic current or voltage across a cell membrane.
The subject of a further assay is GluK3/K5 heteromer. The following applies: read-out: glutamate EC50; ref Perrais et al, 2009a; cited from earlier work.
The test system of a further assay is GluK3 homomers. To be noted: read-out: glutamate EC50; ref Perrais et al, 2009a; cited from earlier work.
The next assay addresses GluK2 receptors. The following applies: literature range; ref Jones et al., 1997; Alt et al., 2004; Jane et al., 2009; cited from earlier work.
Another assay has as its target GluK2/K5 receptors. To be noted: literature range; ref Jones et al., 1997; Alt et al., 2004; Jane et al., 2009; cited from earlier work.

Among the data in article PMC4172534 (Neuroscience, 2014) are EC50 values, retold here.

Structures are written as SMILES.

As for `N[C@@H](CCC(=O)O)C(=O)O` [glutamate], the EC50 is 100 to 200 µM in assay [1], 6000 µM in the assay with GluK3/K5 heteromer and 10000 µM with GluK3 homomers.
For `C=C(C)[C@H]1CN[C@H](C(=O)O)[C@H]1CC(=O)O` [kainate], the EC50 at GluK2 receptors and on GluK2/K5 receptors was 1 to 5 µM each time.

The EC50 is the concentration that produces a half-maximal response.
